SMILES strings stand for the structures. “And” between values parts separate entries of the source, which are not always exact repeats. Equal entries are not always repeated.

Experiment [1] addresses T1, Vitamin D3 receptor (Bos taurus) (UniProt Q28037).
T1 sequence (whole entry): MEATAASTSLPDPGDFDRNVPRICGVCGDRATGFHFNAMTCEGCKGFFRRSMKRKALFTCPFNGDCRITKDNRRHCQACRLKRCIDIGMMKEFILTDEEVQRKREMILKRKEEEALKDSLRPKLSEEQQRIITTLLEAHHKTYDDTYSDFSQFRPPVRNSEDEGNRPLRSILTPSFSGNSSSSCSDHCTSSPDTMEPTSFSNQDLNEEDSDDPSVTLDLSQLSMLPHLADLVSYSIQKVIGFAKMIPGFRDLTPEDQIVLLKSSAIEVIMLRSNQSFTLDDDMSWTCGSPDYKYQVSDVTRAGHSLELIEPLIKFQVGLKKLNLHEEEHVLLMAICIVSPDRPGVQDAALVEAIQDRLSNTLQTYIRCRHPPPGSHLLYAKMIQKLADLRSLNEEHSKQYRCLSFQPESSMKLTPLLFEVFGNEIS
Briefly: Percent binding affinity for bovine vitamin D receptor compared to 1a.

Experiment [2] concerns the target T2, Vitamin D3 receptor (Homo sapiens) (UniProt P11473).
T2 sequence (whole entry): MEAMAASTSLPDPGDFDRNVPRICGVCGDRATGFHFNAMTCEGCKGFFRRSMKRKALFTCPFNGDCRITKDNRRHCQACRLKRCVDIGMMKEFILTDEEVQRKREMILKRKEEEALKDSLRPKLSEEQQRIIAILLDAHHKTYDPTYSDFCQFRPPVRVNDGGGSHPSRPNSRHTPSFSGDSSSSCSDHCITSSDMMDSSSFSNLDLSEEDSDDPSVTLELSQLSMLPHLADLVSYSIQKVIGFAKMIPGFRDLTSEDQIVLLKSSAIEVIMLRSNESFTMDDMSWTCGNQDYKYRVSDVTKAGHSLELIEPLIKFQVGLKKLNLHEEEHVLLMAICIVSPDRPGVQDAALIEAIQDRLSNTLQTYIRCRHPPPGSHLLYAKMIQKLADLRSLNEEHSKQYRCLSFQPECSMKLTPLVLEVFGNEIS
Briefly: Activation of vitamin D receptor in COS-7 cell transcription assay. In kind it is functional, cell-based.

For experiment [3], the target named is T1, Vitamin D3 receptor (Bos taurus). In words: Percent binding affinity for bovine vitamin D receptor compared to 2-Me-1-alpha,2,5-dihydroxy-19-norvitamin D3.
The target of experiment [4] is T2, Vitamin D3 receptor (Homo sapiens). Briefly: Percent activation of vitamin D receptor in COS-7 cell transcription assay at 10e-8 or 10e-9 M. The class given is functional, cell-based.
For experiment [5], the target named is T1, Vitamin D3 receptor (Bos taurus). In words: Percent binding affinity for bovine vitamin D receptor compared to 2-Et-1-alpha,2,5-dihydroxy-19-norvitamin D3.

Consider `C[C@H](CCCC(C)(C)O)[C@H]1CC[C@H]2/C(=C\C=C3C[C@@H](O)C4(CO4)[C@H](O)C3)CCC[C@]12C` (stereo partly specified), for which, in experiment [1], the VDR affinity is 4% and 3%. Moreover, the ED50 in experiment [2] was 0.005 µM and 0.004 µM. For `COCC1(O)[C@H](O)CC(=C/C=C2/CCC[C@]3(C)[C@@H]([C@H](C)CCCC(C)(C)O)CC[C@@H]23)C[C@H]1O` (stereo partly specified), in experiment [1], the VDR affinity is 4% and 0.1%. In the case of `C[C@@H](CCCC(C)(C)O)[C@H]1CC[C@H]2/C(=C\C=C3C[C@@H](O)C(C)(O)[C@H](O)C3)CCC[C@]12C` (stereo partly specified), the VDR affinity is 100% in experiment [1]; 23% and 18% in experiment [3]. The compound further registered an ED50 in experiment [2] of 3.2 µM. Consider `C[C@H](CCCC(C)(C)O)[C@H]1CC[C@H]2/C(=C\C=C3C[C@@H](O)C(C)(O)[C@H](O)C3)CCC[C@]12C` (stereo partly specified), for which the VDR affinity in experiment [3] is 21% and 2.6%. As for `C[C@@H](CCCC(C)(C)O)[C@H]1CC[C@H]2/C(=C\C=C3C[C@@H](O)C(O)(CF)[C@H](O)C3)CCC[C@]12C` (stereo partly specified), the VDR affinity in experiment [1] stood at 60%. The same measure, in the same setting: the same measure for `CCC1(O)[C@H](O)CC(=C/C=C2/CCC[C@]3(C)[C@@H]([C@H](C)CCCC(C)(C)O)CC[C@@H]23)C[C@H]1O` (stereo partly specified): 2% and 0.05%.

`CCC1(O)[C@H](O)CC(=C/C=C2/CCC[C@]3(C)[C@@H]([C@@H](C)CCCC(C)(C)O)CC[C@@H]23)C[C@H]1O` (stereo partly specified): the VDR affinity amounted to 5% in experiment [1] and 200% in experiment [5]. The compound also registered a Transcriptional activity in experiment [4] of 92%. Take `C=C1/C(=C\C=C2/CCC[C@]3(C)[C@@H]([C@H](C)CCCC(C)(C)O)CC[C@@H]23)C[C@@H](O)C[C@@H]1O`: the VDR affinity in experiment [1] is 100%.

Consider `C[C@H](CCCC(C)(C)O)[C@H]1CC[C@H]2/C(=C\C=C3C[C@@H](O)C(O)(CF)[C@H](O)C3)CCC[C@]12C` (stereo partly specified), for which the VDR affinity in experiment [1] is 2% and 0.02%. On the same count and under the same terms, to `COCC1(O)[C@H](O)CC(=C/C=C2/CCC[C@]3(C)[C@@H]([C@@H](C)CCCC(C)(C)O)CC[C@@H]23)C[C@H]1O` (stereo partly specified) belongs 20% and 10%. `C[C@@H](CCCC(C)(C)O)[C@H]1CC[C@H]2/C(=C\C=C3C[C@@H](O)C4(CO4)[C@H](O)C3)CCC[C@]12C` (stereo partly specified): the ED50 in experiment [2] is 0.089 µM and 0.018 µM.

Values taken from ChEMBL document CHEMBL1142015, “New derivatives of 1alpha,25-dihydroxy-19-norvitamin D3 with two substituents at C-2: synthesis and biological activity” (Bioorg Med Chem Lett, 2005).
